Experimental data taken from patent publication US20030073850A1, “4-Imidazole derivatives of benzyl and restricted benzyl sulfonamides, sulfamides, ureas, carbamates, and amides and their use” (priority 1998, published 2003).

Key:
[1] = system: anesthetized dogs; experiment: Urethral pressure profile in anesthetized dogs; format: in vivo, dog; conditions: increasing iv doses, FIG. 1
Experimental: Dogs instrumented and anesthetized as decribed above were placed in left lateral recumbency and a dual pressure sensor catheter (SPC-771, Millar Instruments, Houston, Tex.) was inserted into the urethra and advanced into the bladder. The proximal pressure sensor was interfaced to a M12 computerized data acquisition system for the measurement of lower urinary tract pressures. At a resting intravesical pressure of approximately 5 cm of H2O, urethral pressure was measured from the sensor as the catheter was withdrawn using a modified syringe pump (Model 22, Harvard Apparatus, South Natick, Mass.) at its maximal rate of 0.83 mm/sec. Measurement from the proximal sensor allowed easy reinsertion as the distal 5 cm of the catheter remains in the urethra after the total profile has been obtained. Three resting urethral pressure profiles were obtained at 5 minute intervals before dosing, then a single profile was initiated 30 sec after each increasing iv dose during the time corresponding to the maximum arterial pressure effects of that dose. The increase in arterial pressure seen after each agonist dose was allowed to return to baseline before the next dose was given.

SMILES: CS(=O)(=O)Nc1cccc2c1CCCC2c1c[nH]cn1.Cl (centres unmarked) [Example 8, N-[5-(1H-imidazol-4-yl)-5,6,7,8-tetrahydro-1-naphthalenyl]methanesulfonamide, Hydrochloride]
- urethral pressure profile [1]: corresponding increases in the urethral pressure
- melting point: 113 to 114 °C
